Assay [1] concerns the target T1, calcineurin (CN) catalytic subunit A (CNA), CN-R254K (Homo sapiens, UniProt Q08209, R254K).
T1 construct: gene PPP3CA; human CNA/CNB (CNA: M1-N370, CNB: 16-170); with calcineurin B (CNB)
As to the kind of experiment: microscale thermophoresis (MST). The assay is classed as binding. On the technique in general: Microscale thermophoresis detects binding through changes in fluorescence in a small temperature gradient.

Assay [2] concerns the target T2, calcineurin (CN) catalytic subunit A (CNA); serine/threonine-protein phosphatase 2B catalytic subunit alpha isoform (Homo sapiens, UniProt Q08209).
T2 construct: gene PPP3CA; human CNA/CNB (CNA: M1-N370, CNB: 16-170), His-tagged, E. coli; with calcineurin B (CNB)
In words: microscale thermophoresis (MST); supported by HDX-MS, CETSA and in vitro activation of CN. It is filed as binding.

Broadly, the Kd is a measure of binding affinity in units of concentration.

`C=C(C)[C@@H]1[C@H]2OC(=O)[C@@H]1[C@]1(O)[C@H]3O[C@H]3[C@]3(CO3)[C@]1(C)[C@@H]2O` [tutin]: the Kd is 7.64 ± 4.48 µM in assay [1] and 0.28 ± 0.27 µM in assay [2].

Source of the values: paper PMC9998865, “The toxic natural product tutin causes epileptic seizures in mice by activating calcineurin” (Signal Transduction and Targeted Therapy, 2023).
